In patent publication US5674875A, “Method of blocking human 5-hydroxytryptamine-2 receptors” (priority 1995, dated 1997) one finds IC50 data, which are given here for one compound.

SMILES strings stand for the structures.

Test [1] deals with T1, cloned human 5-HT2 receptor (Homo sapiens, UniProt P28223).
T1 construct: expressed in transfected cells
Format: binding. The conditions noted are these: cells containing cloned human 5-HT2 receptor; performed in triplicate.

The next test concerns the target T2, rat 5-HT2 receptor (Rattus norvegicus, UniProt P14842).
T2 construct: from tissue; host or cells: brain tissue of male Sprague-Dawley rats
The class given is binding. The conditions noted are these: brain tissue of male Sprague-Dawley rats; performed in triplicate. The source says:
This is quite surprising in light of the N-substituted ergolines having a much greater affinity for the 5-HT2 receptors in rats compared to the corresponding N-unsubstituted ergolines.

T2 sequence (P14842 whole entry): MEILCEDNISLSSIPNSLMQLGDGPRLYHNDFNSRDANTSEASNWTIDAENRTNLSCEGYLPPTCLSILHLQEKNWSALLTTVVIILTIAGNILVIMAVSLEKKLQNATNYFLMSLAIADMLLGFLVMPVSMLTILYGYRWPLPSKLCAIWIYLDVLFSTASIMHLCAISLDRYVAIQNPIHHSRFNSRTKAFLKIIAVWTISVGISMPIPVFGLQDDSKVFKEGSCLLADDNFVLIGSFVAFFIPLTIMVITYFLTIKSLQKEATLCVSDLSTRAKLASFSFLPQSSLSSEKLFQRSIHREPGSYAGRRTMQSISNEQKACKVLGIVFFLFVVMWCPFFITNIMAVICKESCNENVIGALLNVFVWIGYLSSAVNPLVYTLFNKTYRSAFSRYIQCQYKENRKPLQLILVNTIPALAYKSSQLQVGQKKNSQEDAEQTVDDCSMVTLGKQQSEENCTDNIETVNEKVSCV
T1 sequence (P28223 whole entry): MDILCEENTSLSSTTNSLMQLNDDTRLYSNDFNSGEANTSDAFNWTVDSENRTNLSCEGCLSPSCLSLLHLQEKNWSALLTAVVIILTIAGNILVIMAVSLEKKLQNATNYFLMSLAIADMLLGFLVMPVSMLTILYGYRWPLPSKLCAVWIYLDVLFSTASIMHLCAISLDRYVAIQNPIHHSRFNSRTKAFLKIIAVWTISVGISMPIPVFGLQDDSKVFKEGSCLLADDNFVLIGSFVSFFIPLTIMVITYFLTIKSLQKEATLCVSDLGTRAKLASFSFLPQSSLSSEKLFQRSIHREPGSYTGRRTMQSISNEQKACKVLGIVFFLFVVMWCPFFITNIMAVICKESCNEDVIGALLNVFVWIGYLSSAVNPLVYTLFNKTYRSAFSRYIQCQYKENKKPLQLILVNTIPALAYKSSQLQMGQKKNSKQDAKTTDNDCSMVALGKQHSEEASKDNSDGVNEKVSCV

With `CC(C)n1cc2c3c(cccc31)C1CC(C(=O)NC3CC3O)CN(C)C1C2` (centres unmarked) [drawing 3 NH 2-hydroxycyclopropyl], the results for the IC50 (in test [1]; on rat 5-HT2 receptor) were 27.7 nM and 5.8 nM, respectively.
